Experiments:
[1] = tested on: HDAC6; parameters: method as in Fan, Huang, Liou, & Yang, 2018; conditions: ref Fan, Huang, Liou, & Yang, 2018; cited from earlier work
[2] = tested on: HDAC 1–11; experiment: HDAC enzymatic assay panel (IC50 heat maps); assay type: biochemical; conditions: HDAC 1–11, recombinant human enzymes
Procedure: Data are expressed as mean ± SEM.
The percentages of enzyme activity (relative to DMSO controls) and IC50 values were calculated using the GraphPad Prism 4 program based on a sigmoidal dose-response equation.

Row | selectivity among HDAC isoforms (heat maps of IC50 values) [2] | Compound | acetylation of Hsp90 [1] | ubiquitination of phosphorylated tau [1]
1 |  | O=C(NO)c1ccc(CNc2cccc3cccnc23)cc1 [MPT0G211] | increased | increased
2 | no selectivity among HDAC isoforms | Cc1[nH]c2ccccc2c1CCNCc1ccc(/C=C/C(=O)NO)cc1 [panobinostat] |  | 

Reference: article PMC6974726, “Acetylation changes tau interactome to degrade tau in Alzheimer’s disease animal and organoid models” (Aging Cell, 2019)
